# In patent publication US9221875B2, “Amphiphilic peptides for treatment of keratitis” (Agency for Science, Technology and Research, priority 2013, dated 2015):
# Like-named read-outs stand apart in the source and are kept apart here. Peptide text beside a SMILES is read from it.
# Key:
# S. aureus [1] = details: 18 h
# C. albicans [2] = tested on: C. albicans
# S. epidermidis [3] = details: 18 h
# C. albicans [4] = type: cell-based, Candida albicans; details: 42 h
# Procedure: (§1) The MICs of peptides were determined against the fungi C. albicans (American Type Culture Collection, ATCC) and F. solani (ATCC) by the broth microdilution method. […] F. solani, were cultured on sabouraud dextrose agar plates in incubator at 37° C. To collect conidia following incubation, conidia of F. solani species were harvested and standardized to 1×10^8 spores/ml before performing the experiments. Sabouraud dextrose broth (90 μL) was added to the wells of culture plates. […] The plates were incubated at 37° C. and examined macroscopically after 24 h for the growth of F. solani. Appropriate control wells without any treatment were included in the study. Peptide were considered to be active if the wells appeared clear without any visible growth of F. solani, and the results were expressed as MIC. The assay was performed in four replicates for each concentration.
# P. aeruginosa [5] = details: 18 h
# rabbit red blood cells = type: cell-based; details: red cells of rabbit, 1 h
# F. solani = type: cell-based; details: 24 h
# Procedure: as §1
# E. coli [6] = details: 18 h
# S. aureus [7] = details: 18 h; remark: listed apart in the source
# S. epidermidis [8] = details: 18 h; remark: listed apart in the source
# [9] = tested on: 5 microorganisms tested (S. epidermidis, S. aureus, E. coli, P. aeruginosa, C. albicans); assay: Mean MIC over the panel and selectivity index (Example 1); type: cell-based
# Procedure: Red blood cells suspension incubated with PBS was used as negative control.
# E. coli [10] = details: 18 h; remark: listed apart in the source
# C. albicans [11] = assay: In vitro killing kinetics; type: cell-based, Candida albicans
# Procedure: The killing kinetics test was performed to evaluate the antimicrobial activities of peptides against C. albicans. Yeast solution was re-suspended in YMB (Difco) to achieve from 10^5 to 10^6 CFU mL^−1. […] Each dilution (20 μL) was plated on agar plate, and incubated 2 days. Surviving colonies were counted after incubation. An untreated inoculum group was used as a negative control. Tests were conducted in triplicates, and the results were presented as killing efficiency (%).
# C. albicans [12] = details: 42 h
# C. albicans biofilm = assay: Biofilm biomass assay, crystal violet; type: cell-based, Candida albicans; details: 500 mg/L, 24 h
# Procedure: The biomass of the biofilms was estimated by a crystal violet staining assay. Briefly, the formed biofilms were first treated with the peptide for 24 h as described above. After aspirating the culture medium, the biofilms were rinsed once with PBS, fixed with methanol for 15 min at room temperature and stained with 100 μL of 0.1% (weight by volume) crystal violet for 10 min. The excess crystal violet dye was removed by rinsing the wells with DI water five times. The dye that is associated with the biofilm was extracted using 100 μL of 33% glacial acetic acid per well, and […] aliquot from each well was transferred to a new 96-well plate for quantification of absorbance at a wavelength of 570 nm using a microplate reader (TECAN, Switzerland). The relative amount of biomass remaining after peptide treatment was expressed as a percentage of the control treated with broth containing 10 vol % of water. Data represented mean±standard deviations of 4 replicates for each concentration.
# C. albicans keratitis = assay: Contact lens-associated C. albicans keratitis mouse model
# P. aeruginosa [13] = details: 18 h; remark: listed apart in the source
# [14] = Stability testing, autoclave and 6 weeks at room temperature, MALDI-TOF MS; type: physicochemical; details: 121° C. 15 min, 2 mg/mL, no protection from light
# Procedure: Peptides 1 and 2 were dissolved in HPLC-grade water at 2 mg/mL, subjected to a standard steam sterilization autoclave cycle at 121° C. for 15 min, and allowed to stand at room temperature for a period of 6 weeks. The integrity of the peptides was determined by evaluating their molecular weights via MALDI-TOF MS before and after treatment.
# [15] = topical eye drops, peptides 3000 mg/L, amphotericin B 1000 mg/L
smiles,measurement,setting,value
CC[C@H](C)[C@H](N)C(=O)N[C@H](C(=O)N[C@@H](CCCNC(=N)N)C(=O)N[C@@H](CCCCN)C(=O)N[C@H](C(=O)N[C@H](C(=O)N[C@@H](CCCNC(=N)N)C(=O)N[C@@H](CCCCN)C(N)=O)[C@@H](C)CC)[C@@H](C)CC)[C@@H](C)CC [Control-all L] (H-IIRKIIRK-NH2; N-terminus assumed),MIC S. aureus,S. aureus [1],>500 µg/mL
same,MIC C. albicans,C. albicans [2],500 µg/mL
same,MIC S. epidermidis,S. epidermidis [3],>500 µg/mL
same,MIC C. albicans,C. albicans [4],>500 µg/mL
same,MIC P aeruginosa,P. aeruginosa [5],>500 µg/mL
same,"HC10, haemolysis concentration 10%: lowest peptide concentration that induces ≧10% haemolysis",rabbit red blood cells,>2000 mg/L
same,MIC F. solani,F. solani,>500 µg/mL
same,MIC E. coli,E. coli [6],>500 µg/mL
CC[C@H](C)[C@H](N)C(=O)N[C@@H](CCCCN)C(=O)N[C@H](C(=O)N[C@@H](CCCCN)C(=O)N[C@H](C(=O)N[C@@H](CCCCN)C(=O)N[C@H](C(=O)N[C@@H](CCCCN)C(N)=O)[C@@H](C)CC)[C@@H](C)CC)[C@@H](C)CC [(IKIK)2-NH2] (H-IKIKIKIK-NH2; N-terminus assumed),MIC S. aureus,S. aureus [7],125 µg/mL
same,MIC S. epidermidis,S. epidermidis [8],2.0 µg/mL
same,"GM, geometric mean of MIC values for the 5 microorganisms tested",[9],38.3 µg/mL
same,MIC E. coli,E. coli [10],31.3 µg/mL
same,time after which most fungi were killed,C. albicans [11]; at 2×MIC and 4×MIC,1 h
same,time after which most fungi were killed,C. albicans [11]; at MIC,4 h
same,MIC C. albicans,C. albicans [12],2.0 µg/mL
same,biomass of C. albicans biofilm,C. albicans biofilm,decreased significantly
same,fungal cells eradicated from the biofilms compared to the untreated control group,"C. albicans keratitis; C. albicans counts in mice cornea, agar plating",~90%
same,"depth of hyphal invasion into the cornea, PAS histology",C. albicans keratitis; [15],reduced the maximal depth of hyphal invasion
same,resolution of the keratitis infection (eye appearance),C. albicans keratitis; [15],significant resolution of the keratitis infection
same,clinical scores of mice corneas (slit lamp),"C. albicans keratitis; topical eye drops, peptides 3000 mg/L, amphotericin B 1000 mg/L, P<0.01",significantly lower than that in the control group
same,MIC P. aeruginosa,P. aeruginosa [13],31.3 µg/mL
same,molecular weight after autoclaving and 6 weeks at room temperature in water,[14],remained unchanged with no degradation products observed
same,MIC F. solani,F. solani,31.3 µg/mL
